Among the data in ChEMBL document CHEMBL3297664, “Identification and characterization of a new reversible MAGL inhibitor” (Bioorg Med Chem, 2014) are IC50 values, retold here.

The target in assay [1] is T1, Monoglyceride lipase (Homo sapiens, UniProt Q99685).
T1 sequence (Q99685 whole entry): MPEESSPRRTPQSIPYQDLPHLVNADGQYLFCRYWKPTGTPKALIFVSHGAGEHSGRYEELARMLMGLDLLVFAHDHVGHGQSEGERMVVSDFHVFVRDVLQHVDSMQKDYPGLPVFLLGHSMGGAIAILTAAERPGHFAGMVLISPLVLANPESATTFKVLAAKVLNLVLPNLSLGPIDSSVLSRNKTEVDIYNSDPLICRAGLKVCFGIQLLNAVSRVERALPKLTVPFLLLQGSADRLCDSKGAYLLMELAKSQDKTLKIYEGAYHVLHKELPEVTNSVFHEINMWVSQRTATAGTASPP
Put plainly: Inhibition of human recombinant MAGL using 4-nitrophenylacetate as substrate after 30 mins.

Assay [2] can be described thus: Cytotoxicity against human COV318 cells assessed as growth inhibition after 96 hrs. The note with it: COV318, 96 h.
Assay [3] has as its system MCF7. Put plainly: Cytotoxicity against human MCF7 cells assessed as growth inhibition after 96 hrs. The note with it: MCF7, 96 h.
The test system of assay [4] is MDA-MB-231. Put plainly: Cytotoxicity against human MDA-MB-231 cells assessed as growth inhibition after 96 hrs. The note with it: MDA-MB-231, 96 h.
The nature of assay [5]: Cytotoxicity against human MSC assessed as growth inhibition after 96 hrs.
A short description of assay [6]: Cytotoxicity against human OVCAR3 cells assessed as growth inhibition after 96 hrs. The following applies: OVCAR-3, 96 h.
The target in assay [7] is T1, Monoglyceride lipase. The experiment in a line: Inhibition of human recombinant MAGL using 4-nitrophenylacetate as substrate preincubated for 30 mins followed by substrate addition.
In assay [8] the target is T1, Monoglyceride lipase. The experiment in a line: Inhibition of human recombinant MAGL using 4-nitrophenylacetate as substrate.
For assay [9], the target named is T1, Monoglyceride lipase. Put plainly: Inhibition of human recombinant MAGL using 4-nitrophenylacetate as substrate preincubated for 60 mins followed by substrate addition.

`COc1ccc(-c2nnn(CC(=O)N3CCN(c4ccc(F)cc4)CC3)n2)cc1`: in assay [1], the 50% inhibitory concentration (IC50) (as a rule, the concentration at which inhibition is half-maximal) is > 500 µM.

Consider `O=C(Cc1ccccc1)N1CCC(C(=O)N2CCN(c3ccc(F)cc3)CC2)CC1`, for which, in assay [1], the IC50 is > 500 µM.

As to `CCOc1ccc(N2CC(C(=O)Nc3ccc(C(C)=O)cc3)CC2=O)cc1` (stereo not given), in assay [1], the IC50 is > 500 µM.

Regarding `COc1ccc(-c2nnc(SCC(=O)N3CCN(c4ccc(OC)cc4)CC3)o2)cc1`, the IC50 in assay [1] is > 500 µM.

Consider `O=C(c1ccc([N+](=O)[O-])cc1)c1ccc2c(c1)C(=O)N(c1cccnc1)C2=O`, for which the IC50 in assay [1] is > 500 µM.

For the compound `COc1ccc(C(=O)N2CCC(C(=O)c3ccc(Cl)cc3)CC2)cc1`, the IC50 is 73.9 µM in [2]; 19.9 µM in [3]; 75.3 µM in assay [4]; > 300 µM in [5]; 50.7 µM in assay [6].

In the case of `O=C(Cn1nnc(-c2ccc(N3CCOCC3)cc2)n1)N1CCN(c2ccccc2)CC1`, the IC50 in assay [1] is > 500 µM.

As to `COc1ccc(CNC(=O)c2ccc3nc(-c4ccoc4)c(-c4ccoc4)nc3c2)cc1`, the IC50 in assay [1] is > 500 µM.

For `COc1nn(-c2ccc(NC(=O)OCc3ccccc3)c(C)c2)c(=O)o1`, the IC50 in assay [2] came to 107 µM; in assay [3] it was 4.2 µM; in assay [7] it was 0.026 µM; in assay [4], 46 µM; in assay [8], 0.146 µM; in [9], 0.009 µM. In addition, the results for the IC50 in assay [5] and in [6] were 276 µM and > 79.8 µM, respectively.
